From PMC3169404, “Inhibitor-bound complexes of dihydrofolate reductase-thymidylate synthase from Babesia bovis” (Acta Crystallographica Section F: Structural Biology and …, 2011)

How the values were obtained:
[1] = target: T1, BbDHFR-TS (Babesia bovis, UniProt A7ASX7); test: X-ray crystal structures (co-purified 3k2h; cocrystallisation 3nrr); assay type: binding; conditions: DHFR site; with pemetrexed (3k2h) or raltitrexed (3nrr); oxidation state not stated beyond NADP
T1 construct: gene BBOV_II000780; full length 1-511, N-terminal 6xHis-Smt tag removed by Ulp1 without remnant, expressed in E. coli BL21 (DE3); DHFR about 1-186, 40-residue linker, TS C-terminal 285 residues
T1 sequence (A7ASX7 1-511): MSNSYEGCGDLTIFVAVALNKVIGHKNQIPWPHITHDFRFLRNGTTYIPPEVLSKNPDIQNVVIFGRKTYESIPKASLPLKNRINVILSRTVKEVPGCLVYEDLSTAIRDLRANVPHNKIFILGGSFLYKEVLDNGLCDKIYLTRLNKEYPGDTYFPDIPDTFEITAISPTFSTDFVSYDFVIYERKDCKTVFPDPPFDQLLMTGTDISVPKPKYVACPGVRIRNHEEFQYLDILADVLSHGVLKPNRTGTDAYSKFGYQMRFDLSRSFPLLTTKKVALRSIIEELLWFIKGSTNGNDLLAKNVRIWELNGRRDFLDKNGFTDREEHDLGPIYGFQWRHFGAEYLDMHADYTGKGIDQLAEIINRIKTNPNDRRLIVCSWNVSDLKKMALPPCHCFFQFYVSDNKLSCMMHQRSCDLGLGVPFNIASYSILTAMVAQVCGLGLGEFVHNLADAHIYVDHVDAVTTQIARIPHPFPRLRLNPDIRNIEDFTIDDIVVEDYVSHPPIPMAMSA

[2] = target: T1, BbDHFR-TS; test: X-ray crystal structure, […] Å, soak; assay type: binding; conditions: in both TS site (with dUMP) and DHFR site (with NADP); 2 mM pemetrexed, 2.0 mM dUMP; PEG 8000, CHES pH 9.5, 289 K
[3] = target: T1, BbDHFR-TS; test: X-ray crystal structure, […] Å, cocrystallisation; assay type: binding; conditions: in both TS site (with dUMP) and DHFR site (with NADP); 5 mM raltitrexed, 2 mM dUMP, 2 mM NADP; 20 mM MgCl2, HEPES pH 7.5, 289 K
[4] = target: T1, BbDHFR-TS; test: X-ray crystal structures (soak 3k2h; cocrystallisation 3nrr); assay type: binding; conditions: TS active site; ternary complex with pemetrexed (3k2h) or raltitrexed (3nrr)
[5] = target: dihydrofolate reductase-thymidylate synthase from B. bovis (Babesia bovis (Texas T2Bo isolate)); test: crystal structure; three crystal structures of BbDHFR-TS (apo; with dUMP, NADP and pemetrexed; with dUMP, NADP and raltitrexed); space group P1, homodimer in the asymmetric unit; crystals grown at 289 K, data at 100 K

NC(=O)c1ccc[n+]([C@@H]2O[C@H](COP(=O)(O)OP(=O)(O)OC[C@H]3O[C@@H](n4cnc5c(N)ncnc54)[C@H](OP(=O)(O)O)[C@@H]3O)[C@@H](O)[C@H]2O)c1 [NADP]
X-ray crystal structures (co-purified 3k2h; cocrystallisation 3nrr) [1]: pemetrexed and NADP bound in the DHFR subunit

Nc1nc(=O)c2c(CCc3ccc(C(=O)N[C@@H](CCC(=O)O)C(=O)O)cc3)c[nH]c2[nH]1 [PTX, pemetrexed]
X-ray crystal structure, 2.2 Å, soak [2]: contains the antifolate pemetrexed and dUMP bound in the TS subunit and pemetrexed and NADP

Cc1nc2ccc(CN(C)c3ccc(C(=O)N[C@@H](CCC(=O)O)C(=O)O)s3)cc2c(=O)[nH]1 [RTX, raltitrexed]
X-ray crystal structure, 1.8 Å, cocrystallisation [3]: raltirexed rather than pemetrexed in both folate sites, as well as dUMP and NADP

O=c1ccn([C@H]2C[C@H](O)[C@@H](COP(=O)(O)O)O2)c(=O)[nH]1 [dUMP]
X-ray crystal structures (soak 3k2h; cocrystallisation 3nrr) [4]: contains the antifolate pemetrexed and dUMP bound in the TS subunit

dihydrofolate reductase-thymidylate synthase from B. bovis (enzyme)
stoichiometry N [5]: 2
